Test results: patent US20050033035A1, “Mutants of igf binding proteins and methods of production of antagonists thereof” (priority 2001, published 2005)
Read-outs that look alike come from different tables or passages of the source. Each block holds one molecule with its values, some of them ahead of it.

Experiments:
[1] = biological target: T1, IGFBP-5 (Homo sapiens, UniProt P24593); assay: Detection of ligand binding by 15N-HSQC NMR titration
T1 construct: His-tag (N); T7-tag (pET-28a construct only) (N); made in house; host or cells: E. coli BL21
Description: Ligand binding was detected by acquiring ^15N—HSQC spectra. All NMR spectra were acquired at 300 K on Bruker DRX600 spectrometer. The samples for NMR spectroscopy were concentrated and dialyzed against PBS buffer. Typically, the sample concentration was varied from 0.3 to 1.0 mM. Before measuring, the sample was centrifuged in order to sediment aggregates and other macroscopic particles. 450 μl of the protein solution were mixed with 50 μl of D2O (5-10%) and transferred to an NMR sample tube. The stock solutions of compounds were 100 mM either in water or in perdeuterated DMSO. pH was maintained constant during the whole titration. The binding was monitored by observation of the changes in the ^15N—HSQC spectrum. Dissociation constants were obtained by monitoring the chemical shift changes of the backbone amide of several amino acid residues (Table 9) as a function of ligand concentration. Data were fit using a single binding site model.

[2] = biological target: T2, complex of IGFBP-5 and IGF-I (Homo sapiens, UniProt P24593); assay: Release of IGF-I from the complex with IGFBP-5 measured by 125I-IGF-I binding to IGF-R expressing NIH 3T3 cells; format: cell-based; conditions: 10 or 100 nM IGFBP-5, 5 pM 125I-IGF-I, FIG. 7
T2 sequence (P24593 21-272, one chain of several): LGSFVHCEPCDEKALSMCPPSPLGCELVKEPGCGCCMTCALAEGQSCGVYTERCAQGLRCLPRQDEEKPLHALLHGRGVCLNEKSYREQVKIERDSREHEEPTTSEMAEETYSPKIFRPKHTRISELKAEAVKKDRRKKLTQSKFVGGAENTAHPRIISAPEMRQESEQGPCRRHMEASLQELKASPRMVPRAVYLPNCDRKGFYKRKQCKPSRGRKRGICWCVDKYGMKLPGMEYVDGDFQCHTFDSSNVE
Description: Kalus, W., et al., in EMBO J. 17 (1998) 6558-6572, describe the inhibition of the binding of IGF-I to IGF-R expressing NIH 3T3 cells by formation of an inhibitory complex. This assay was used to investigate the release of IGF-I from the inhibitory complex with IGFBP-5.
NIH 3T3 cells stably expressing human IGF-R were grown in culture dishes in Dulbecco's modified Eagle's medium (DMEM) containing 10% fetal calf serum. Cells were washed carefully with PBS and incubated with 5 ml of 50 mM EDTA in PBS for 45 min. Cells were removed from the plate, washed once with PBS and once with binding buffer (100 mM HEPES pH 7.6, 120 mM NaCl, 5 mM KCl, 1.2 mM MgSO 4, 1 mM EDTA, 10 mM glucose, 15 mM sodium acetate, 1% dialysed BSA), and resuspended in binding buffer to determine the cell number. 5 pM ^125 I-IGF-I (Amersham) was preincubated with either 10 or 100 nM IGFBP-5 alone or in combination with 33 μM of the different compounds 1,2,3,4B and 4C at 4° C. for 1 h. Then 400 μl of the cell suspension corresponding to 2×10^5 cells were added to give a total volume of 500 μl. After 12 h incubation at 4° C., cells were washed with binding buffer (at 4° C.). Free hormone was removed by repeated centrifugation and resuspension in the binding buffer. The 125 I radioactivity bound to the cells was determined in a gamma-counter.

[3] = biological target: T2, complex of IGFBP-5 and IGF-I; assay: Release of IGF-I from the complex with IGFBP-5 measured by IGF-R activation (autophosphorylation) in NIH 3T3 cells; format: cell-based; conditions: FIG. 8
Text: Kalus, W., et al., in EMBO J. 17 (1998) 6558-6572, describe the inhibition of the activation and autophosphorylation of the IGF-R by IGF-I in the presence of IGFBP-5. This assay was used to further investigate the release of IGF-I from the inhibitory complex with IGFBP-5 by compound 3. Binding of compound 3 to IGFBP-5 and dissociation of the complex of the binding protein with IGF-I should result in an activation and autophosphorylation of the IGF-R in the presence of IGFBP-5.
Confluent monolayers of the NIH 3T3 cells stably expressing human IGF-R in 3.5 cm dishes were starved in DMEM containing 0.5% dialysed fetal calf serum. After 48 h, cells were incubated without any hormone or with 10 nM IGF-I. Samples were preincubated with 100 nM IGFBP-5 and increasing concentrations of compound 3 from 0 to 50 μM at room temperature for 1 h. After a 10 min stimulation at 37° C., the medium was removed and cells were lysed with 250 μl of lysing buffer (20 mM HEPES pH 7.5, 150 mM NaCl, 10% glycerol, 1% NP-40, 1.5 mM MgCl 2, 1 mM EGTA), 10 mM sodium orthovanadate, and protease inhibitor cocktail Complete (Roche Molecular Biochemicals) for 10 min on ice. […] The protein concentration of the supernatant was determined using the BCA kit from Pierce according to the manufacturer's instructions. […]

[4] = biological target: IGF-I (Homo sapiens, UniProt P05019); conditions: domain of IGFBP-5 residues 40-92; cited from earlier work
IGF-I, sequence (P05019 49-118 limits assumed): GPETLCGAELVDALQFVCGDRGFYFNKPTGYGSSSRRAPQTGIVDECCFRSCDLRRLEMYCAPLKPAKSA

[5] = biological target: IGF-II (Homo sapiens, UniProt P01344); conditions: domain of IGFBP-5 residues 40-92; cited from earlier work
IGF-II, sequence (P01344 25-91 limits assumed): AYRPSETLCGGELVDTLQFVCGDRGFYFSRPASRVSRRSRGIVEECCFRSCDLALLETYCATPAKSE

[6] = system: tumor growth; conditions: 1 mg/dose daily in mice; cited from earlier work
[7] = system: MCF-7 cells; conditions: in vitro; cited from earlier work
[8] = system: MDA-MB-231 cells; conditions: in vivo in mice; cited from earlier work
[9] = system: MDA-MB-435A cells; conditions: in vitro; cited from earlier work
[10] = changes in chemical shift for the residue L81, read-out: KD

Molecule: O=C(N[C@@H](Cc1ccc(OP(=O)(O)O)cc1)C(=O)O)OCC1c2ccccc2-c2ccccc21 [Compound 2, Nα-FMOC-O-phospho-L-tyrosine]
Kd ([1]; average over residues, read-out: ligand in DMSO KD): 1.71 ± 0.37 mM
Kd ([1]; average over residues, read-out: ligand in PBS KD): 2.21 ± 0.4 mM
Kd [1, 10]: 2.78 ± 0.3 mM
Kd ([1]; residue K91, read-out: ligand in DMSO KD): 2.42 ± 0.18 mM
Kd ([1]; residue K91, read-out: ligand in PBS KD): 2.12 ± 1.03 mM
Kd ([1]; residue L73, read-out: ligand in DMSO KD): 1.31 ± 0.17 mM
Kd ([1]; residue L73, read-out: ligand in PBS KD): 2.93 ± 1.41 mM
Kd ([1]; residue R87, read-out: ligand in DMSO KD): 1.64 ± 0.12 mM
Kd ([1]; residue R87, read-out: ligand in PBS KD): 2.36 ± 1 mM
Kd ([1]; residue S85, read-out: ligand in DMSO KD): 1.38 ± 0.1 mM
Kd ([1]; residue S85, read-out: ligand in PBS KD): 2.33 ± 0.94 mM
Kd ([1]; residue Y50, read-out: ligand in DMSO KD): 1.58 ± 0.09 mM
Kd ([1]; residue Y50, read-out: ligand in PBS KD): 1.82 ± 0.95 mM
Kd ([1]; residue Y86, read-out: ligand in DMSO KD): 1.9 ± 0.17 mM
Kd ([1]; residue Y86, read-out: ligand in PBS KD): 1.72 ± 0.99 mM

Kd [1, 10]: 0.718 ± 0.079 mM
Molecule: CC(C)(C)Oc1ccc(C[C@H](NC(=O)OCC2c3ccccc3-c3ccccc32)C(=O)O)cc1 [Compound 2A, Nα-FMOC-O-tert-butyl-L-tyrosine]

Kd [1, 10]: 1.08 ± 0.507 mM
Molecule: O=C(N[C@@H](Cc1ccccc1)C(=O)O)OCC1c2ccccc2-c2ccccc21 [Compound 2B, Nα-FMOC-L-phenylalanine]

Molecule: O=C(Nc1ccc(S(=O)(=O)F)cc1)c1cc(N=Nc2cc(Cl)ccc2Cl)c2ccccc2c1O [Compound 3, 4-(2,5-Dichlorophenylazo)-4′fluorosulfonyl-1-hydroxy-2-naphthanilide]
release of IGF-I from the complex and binding of IGF-I to IGF-R expressing cells ([2]; 33 μM compound): release of IGF-I from the complex
autophosphorylation of IGF-R in presence of inactive complex of IGFBP-5 and IGF-I ([3]; 50 uM compound 3, 100 nM IGFBP-5, 10 nM IGF-I): increased autophosphorylation of the receptor

binding of labeled IGF-I to NIH 3T3 cells [2]: inhibited
autophosphorylation of IGF-R by IGF-I ([3]; 100 nM IGFBP-5, 10 nM IGF-I): inhibited
Molecule: IGFBP-5: human insulin-like growth factor binding protein 5, SwissProt P 24593

Molecule: mini-IGFBP-5: domain of IGFBP-5 between residues 40-92 (GSALAEGQSCGVYTERCAQGLRCLPRQDEEKPLHALLHGRGVCLNEKSYREQVKI)
Kd [4]: 37 nM
Kd [5]: 6 nM

B1: pegylated IGFBP-1: IGFBP-1 covalently coupled to polyethylene glycol (van den Berg) (conjugate, UniProt P08833 26-259, looked up)
Insulin-like growth …: APWQCAPCSAEKLALCPPVSASCSEVTRSAGCGCCPMCALPLGAACGVATARCARGLSCRALPGEQQPLHALTRGQGACVQESDASAPHAAEAGSPESPESTEITEEELLDNFHLMAPSEEDHSILWDAISTYDGSKALHVTNIKKWKEPCRIELYRVVESLAKAQETSGEEISKFYLPNCNKNGFYHSRQCETSMDGEAGLCWCVYPWNGKRIPGSPEIRGDPNCQIYFNVQN
modifications: PEG
inhibition of tumor growth (response) [6]: only partial response

B2: IGFBP-1: human insulin-like growth factor binding protein 1, SwissProt P 08833 (protein, UniProt P08833 26-259, looked up)
Insulin-like growth …: B1 Insulin-like growth …
growth of MCF-7 cells [7]: inhibits the growth
growth of tumors formed MDA-MB-231 cells [8]: inhibits the growth
growth of MDA-MB-435A cells [9]: inhibits the growth
